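All cell lines were grown in 96-well plates and treated with compound for 48 hours. TGI denotes the concentration required for complete inhibition of growth.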
Assays:
Experiment in all cases: growth of human tumour cells (NCI), 48 h
786-0 renal = system: 786-0 renal
A498 renal = system: A498 renal
A549 NSCLC = system: A549 NSCLC
ACHN renal = system: ACHN renal
CCRF-CEM leukemia = system: CCRF-CEM leukemia
COLO 205 colon = system: COLO 205 colon
DLD-1 colon = system: DLD-1 colon
DMS 114 small cell lung = system: DMS 114 small cell lung
DMS 273 small cell lung = system: DMS 273 small cell lung
EKVX NSCLC = system: EKVX NSCLC
HCC-2998 colon = system: HCC-2998 colon
HCT-116 colon = system: HCT-116 colon
HCT-15 colon = system: HCT-15 colon
HL-60(TB) leukemia = system: HL-60(TB) leukemia
HOP-62 NSCLC = system: HOP-62 NSCLC
HOP-92 NSCLC = system: HOP-92 NSCLC
HT29 colon = system: HT29 colon
IGROV1 ovarian = system: IGROV1 ovarian
K-562 leukemia = system: K-562 leukemia
KM12 colon = system: KM12 colon
KM20L2 colon = system: KM20L2 colon
LOX IMVI melanoma = system: LOX IMVI melanoma
LXFL 529 NSCLC = system: LXFL 529 NSCLC
M14 melanoma = system: M14 melanoma
M19-MEL melanoma = system: M19-MEL melanoma
MOLT-4 leukemia = system: MOLT-4 leukemia
NCI-H226 lung = system: NCI-H226 lung
NCI-H23 lung = system: NCI-H23 lung
NCI-H460 lung = system: NCI-H460 lung
NCI-H522 lung = system: NCI-H522 lung
OVCAR-3 ovarian = system: OVCAR-3 ovarian
OVCAR-4 ovarian = system: OVCAR-4 ovarian
OVCAR-5 ovarian = system: OVCAR-5 ovarian
OVCAR-8 ovarian = system: OVCAR-8 ovarian
RPMI-8226 leukemia = system: RPMI-8226 leukemia
RXF 393 renal = system: RXF 393 renal
SF-268 CNS = system: SF-268 CNS
SF-295 CNS = system: SF-295 CNS
SF-539 CNS = system: SF-539 CNS
SK-MEL-2 melanoma = system: SK-MEL-2 melanoma
SK-MEL-28 melanoma = system: SK-MEL-28 melanoma
SK-MEL-5 melanoma = system: SK-MEL-5 melanoma
SK-OV-3 ovarian = system: SK-OV-3 ovarian
SN12C renal = system: SN12C renal
SNB-19 CNS = system: SNB-19 CNS
SNB-75 CNS = system: SNB-75 CNS
SNB-78 CNS = system: SNB-78 CNS
SW-620 colon = system: SW-620 colon
TK-10 renal = system: TK-10 renal
U251 CNS = system: U251 CNS
UACC-62 melanoma = system: UACC-62 melanoma
UO-31 renal = system: UO-31 renal
CAKI-1 renal = system: CAKI-1 renal
UACC-257 melanoma = system: UACC-257 melanoma

Measured: TGI

COc1ccc(C(N)=O)c(OC)c1OCc1ccccc1
7.11 µM: RXF 393 renal
81.7 µM: NCI-H522 lung
not listed: CAKI-1 renal | UACC-257 melanoma
> 100 µM: all other assays above

Cc1ccc(C(=O)Nc2ccccc2)cc1N=NN(C)C
44 µM: 786-0 renal
not listed: A498 renal | CCRF-CEM leukemia | COLO 205 colon | DMS 114 small cell lung | HL-60(TB) leukemia | K-562 leukemia | KM20L2 colon | MOLT-4 leukemia | NCI-H226 lung | OVCAR-5 ovarian | RPMI-8226 leukemia | RXF 393 renal | SK-OV-3 ovarian | SNB-75 CNS
> 100 µM: all other assays above

Source: PubChem BioAssay (NCI)
